Activity calls are given as the source filed them. The calls are words filed in the database; no cut-off is given here.
Key:
Homo sapiens = species: Homo sapiens; assay: Inhibition of mitochondrial complex I (unknown origin) at 1 uM incubated for 15 mins by microplate reader analysis relative to control
[1] = Inhibition of mitochondrial complex I (unknown origin) incubated for 15 mins by microplate reader analysis; parameters: species or system Homo sapiens
HCT-116 [2] = assay: Induction of mitochondrial membrane potential depolarization in human HCT-116 cells at 2 nM incubated for 24 hrs by JC-1 staining based flow cytometry analysis; format: functional
NCM460 = assay: Antiproliferative activity against human NCM460 cells assessed as inhibition of cell growth incubated for 96 hrs by MTT assay; format: functional, cell-based; settings: NCM460, 96 h
HCT-116 [3] = assay: Antiproliferative activity against human HCT-116 cells assessed as inhibition of cell growth incubated for 96 hrs by MTT assay; format: functional, cell-based; settings: HCT-116, 96 h
[4] = Apparent permeability across apical to basolateral side in human Caco-2 cells incubated for 120 mins by LC-MS/MS analysis; format: ADME, cell-based
KG-1 [5] = assay: Induction of ROS generation in human KG-1 cells at 32 nM measured for 30 mins by DCFDA-staining based flow cytometry analysis; format: functional, cell-based
[6] = Efflux ratio of apparent permeability across basolateral to apical membrane to apical to basolateral membrane in human Caco-2 cells incubated for 120 mins by LC-MS/MS analysis; format: ADME, cell-based
[7] = Apparent permeability across basolateral side to apical in human Caco-2 cells incubated for 120 mins by LC-MS/MS analysis; format: ADME, cell-based
KG-1 [8] = assay: Antiproliferative activity against human KG-1 cells assessed as inhibition of cell growth incubated for 96 hrs by MTT assay; format: functional, cell-based; settings: KG-1, 96 h

Work on `Cc1cc(C(=O)Nc2ccc(OC(F)(F)F)cc2)nn1Cc1ccc2ccccc2c1` yielded an inhibition (Homo sapiens) of 4.6%.

With `Cc1cc(C(=O)Nc2ccc(OC(F)(F)F)cc2)nn1Cc1cccc(N(C)C2CCOCC2)c1` the inhibition (Homo sapiens) was 13.5%.

`C=C(C)[C@H]1Cc2c(ccc3c2O[C@@H]2COc4cc(OC)c(OC)cc4[C@@H]2C3=O)O1` gave an inhibition (Homo sapiens) of 71.8%.

`Cc1cc(C(=O)Nc2ccc(OC(F)(F)F)cc2)nn1Cc1cccc(Br)c1` gave an inhibition (Homo sapiens) of 1.54%.

For `Cc1cc(C(=O)Nc2ccccc2OC(F)(F)F)nn1Cc1cccc(N2CCN(C(=O)C3CC3)CC2)c1`, the inhibition (Homo sapiens) was 1.87%.

`COc1cc(Cn2nc(C(=O)Nc3ccc(OC(F)(F)F)cc3)cc2C)cc(OC)c1` showed an inhibition (Homo sapiens) of 2.05%.

In the case of `Cc1cc(C(=O)Nc2ccc(OC(F)(F)F)cc2)nn1Cc1cccc(-c2ccc(S(C)(=O)=O)cc2)c1`, the IC50 [1] is reported as 860 nM and the inhibition (Homo sapiens) is reported as 52.5%.

With `Cc1cc(C(=O)Nc2ccc(OC(F)(F)F)cc2)nn1Cc1cccc(N2CCC(S(C)(=O)=O)CC2)c1` the IC50 [1] was 960 nM and the inhibition (Homo sapiens) was 49.7%.

Work on `COc1ccc(NC(=O)c2cc(C)n(Cc3cccc(N4CCN(C(=O)C5CC5)CC4)c3)n2)cc1` yielded an inhibition (Homo sapiens) of 5.23%.

Compound `Cc1cn(Cc2cccc(N3CCC(S(C)(=O)=O)CC3)c2)nc1C(=O)Nc1ccc(OC(F)(F)F)cc1` has an inhibition (Homo sapiens) of 9.43%.

In the case of `Cc1cc(C(=O)Nc2ccccc2F)nn1Cc1cccc(N2CCN(C(=O)C3CC3)CC2)c1`, the inhibition (Homo sapiens) is reported as 1.72%.

In the case of `Cc1cc(C(=O)Nc2ccccc2)nn1Cc1cccc(N2CCN(C(=O)C3CC3)CC2)c1`, the inhibition (Homo sapiens) is reported as 7.12%.

For `Cc1cc(C(=O)Nc2cc(F)cc(F)c2)nn1Cc1cccc(N2CCN(C(=O)C3CC3)CC2)c1`, the inhibition (Homo sapiens) was 9.58%.

In the case of `Cc1cc(C(=O)Nc2ccc(OC(F)(F)F)cc2)nn1Cc1ccc(F)c(Br)c1`, the inhibition (Homo sapiens) is reported as 1.32%.

`CS(=O)(=O)C1CCN(c2cccc(Cn3nc(C(=O)Nc4ccc(OC(F)(F)F)cc4)c4c5nn(c6ccccc56)c43)c2)CC1` showed an IC50 [1] of 91300 nM and an inhibition (Homo sapiens) of 1.12%.

With `Cc1ccccc1Cn1nc(C(=O)Nc2ccc(OC(F)(F)F)cc2)cc1C` the inhibition (Homo sapiens) was 1.7%.

For `Cc1cc(C(=O)Nc2ccc(OC(F)(F)F)cc2)nn1Cc1ccc(N2CCC(S(C)(=O)=O)CC2)cc1`, the inhibition (Homo sapiens) was 3.85%.

With `COc1ccccc1-c1cccc(Cn2nc(C(=O)Nc3ccc(OC(F)(F)F)cc3)cc2C)c1` the inhibition (Homo sapiens) was 3.57%.

`Cc1cc(C(=O)Nc2ccc(OC(F)(F)F)cc2)nn1Cc1cccc(N2CCOCC2)c1` gave an inhibition (Homo sapiens) of 8.94%.

Work on `Cc1ccc(Cn2nc(C(=O)Nc3ccc(OC(F)(F)F)cc3)cc2C)cc1` yielded an inhibition (Homo sapiens) of 8.06%.

`Cc1cc(C(=O)Nc2cccnc2)nn1Cc1cccc(N2CCN(C(=O)C3CC3)CC2)c1` gave an inhibition (Homo sapiens) of 16.1%.

For `CS(=O)(=O)C1CCN(c2cccc(Cn3nc(C(=O)Nc4ccc(OC(F)(F)F)cc4)c4c5nn(c6c5COCC6)c43)c2)CC1`, the IC50 [1] was 101000 nM and the inhibition (Homo sapiens) was 13.2%.

`Cc1cccc(NC(=O)c2cc(C)n(Cc3cccc(N4CCN(C(=O)C5CC5)CC4)c3)n2)c1` showed an inhibition (Homo sapiens) of 6.44%.

Work on `Cc1ccc(NC(=O)c2cc(C)n(Cc3cccc(N4CCN(C(=O)C5CC5)CC4)c3)n2)cc1F` yielded an inhibition (Homo sapiens) of 3.49%.

In the case of `Cc1cc(C(=O)Nc2ccc(OC(F)(F)F)cc2)nn1Cc1cccc(N2CCN(S(C)(=O)=O)CC2)c1`, the IC50 [1] is reported as 1060 nM and the inhibition (Homo sapiens) is reported as 50.4%.

For `Cc1cc(C(=O)Nc2ccc(OC(F)(F)F)cc2)nn1Cc1cccc(N2CCS(=O)(=O)CC2)c1`, the inhibition (Homo sapiens) was 6.09%.

Work on `Cc1cc(C(=O)Nc2ccc(F)cc2)nn1Cc1cccc(N2CCN(C(=O)C3CC3)CC2)c1` yielded an inhibition (Homo sapiens) of 8.24%.

With `Cc1ccc(NC(=O)c2cc(C)n(Cc3cccc(N4CCN(C(=O)C5CC5)CC4)c3)n2)cc1` the inhibition (Homo sapiens) was 7.73%.

In the case of `Cc1cc(C(=O)Nc2ccc(OC(F)(F)F)cc2)nn1Cc1ccccc1`, the inhibition (Homo sapiens) is reported as 1.03%.

In the case of `Cc1cc(C(=O)Nc2ccc(Cl)c(F)c2)nn1Cc1cccc(N2CCN(C(=O)C3CC3)CC2)c1`, the inhibition (Homo sapiens) is reported as 11.1%.

For `Cc1cc(C(=O)Nc2ccc(OC(F)(F)F)cc2)nn1Cc1cccnc1`, the inhibition (Homo sapiens) was 1.37%.

In the case of `Cc1cc(C(=O)Nc2cccc(OC(F)(F)F)c2)nn1Cc1cccc(N2CCN(C(=O)C3CC3)CC2)c1`, the inhibition (Homo sapiens) is reported as 3.1%.

Compound `CS(=O)(=O)C1CCN(c2cccc(Cn3nc(C(=O)Nc4ccc(OC(F)(F)F)cc4)cc3-c3ccccc3)c2)CC1` has an IC50 [1] of 1410 nM and an inhibition (Homo sapiens) of 36.3%.

Compound `Cc1nc(-c2nc(-c3ccc(OC(F)(F)F)cc3)no2)nn1Cc1cccc(N2CCC(S(C)(=O)=O)CC2)c1` has an Activity (HCT-116 [2]) of 21.1%, an IC50 (NCM460) of over 1000 nM and an IC50 (HCT-116 [3]) of 9.63 nM. For the same compound, the IC50 [1] was 115000 nM, the Papp A→B at 2 h [4] was 4.86 ×10⁻⁶ cm/s and the Activity (KG-1 [5]) was “Active”. It also gave an efflux ratio at 2 h [6] of 0.68, a Papp B→A at 2 h [7] of 3.33 ×10⁻⁶ cm/s and an inhibition (Homo sapiens) of 32.7%. The IC50 (KG-1 [8]) was 63.8 nM.

For `Cc1cc(C)cc(-c2cccc(Cn3nc(C(=O)Nc4ccc(OC(F)(F)F)cc4)cc3C)c2)c1`, the inhibition (Homo sapiens) was 3.73%.

`COc1ccc(NC(=O)c2cc(C)n(Cc3cccc(N4CCN(C(=O)C5CC5)CC4)c3)n2)cc1OC` gave an inhibition (Homo sapiens) of 4.85%.

`Cc1cc(C(=O)Nc2ccc(OC(F)(F)F)cc2)nn1Cc1cccc(S(=O)(=O)N2CCOCC2)c1` gave an inhibition (Homo sapiens) of 4.42%.

`CS(=O)(=O)C1CCN(c2cccc(Cn3nc(C(=O)Nc4ccc(OC(F)(F)F)cc4)c4c5nn(c6c5CCC6)c43)c2)CC1` showed an IC50 [1] of 91300 nM and an inhibition (Homo sapiens) of 29.2%.

Work on `CS(=O)(=O)C1CCN(c2cccc(Cn3ccc(C(=O)Nc4ccc(OC(F)(F)F)cc4)n3)c2)CC1` yielded an inhibition (Homo sapiens) of 26.6%.

For `Cc1cc(C(=O)Nc2cccc(F)c2)nn1Cc1cccc(N2CCN(C(=O)C3CC3)CC2)c1`, the inhibition (Homo sapiens) was 1.54%.

With `CC(C)(C)c1cc(C(=O)Nc2ccc(OC(F)(F)F)cc2)nn1Cc1cccc(N2CCC(S(C)(=O)=O)CC2)c1` the IC50 [1] was 1360 nM and the inhibition (Homo sapiens) was 38.7%.

Compound `Cc1cc(C(=O)Nc2ccc(OC(F)(F)F)cc2)nn1Cc1cccc(-c2ccccc2O)c1` has an inhibition (Homo sapiens) of 25.6%.

Work on `Cc1cc(C(=O)Nc2ccc(OC(F)(F)F)cc2)nn1Cc1cccc(-c2ccc(C(C)(C)C)cc2)c1` yielded an inhibition (Homo sapiens) of 29.6%.
